Literature values as cited in EP1165099B1, “ANGIOTENSIN II AND ANALOGS THEREOF FOR LIMITING SCAR AND ADHESION FORMATION” (UNIVERSITY OF SOUTHERN CALIFORNIA, priority 1999, dated 2006).

System: AT2 receptor

Row | affinity for AT2 than AT1 (ratio of affinity AT2 over AT1) [times] | Substance | binding characteristics (experimental models of the cited literature)
1 | 100 | Asp-Arg-Val-Tyr-Ile-His-Pro-Phe [AII] | 
2 |  | Asp-Arg-Val-Tyr-Ile-Xaa-Pro-Phe [(p-NH2-Phe)6-AII] | comparable to AT2 antagonists
